Data on 32 compounds can be found in patent US8389500B2, “Fused heterocyclic compounds as ion channel modulators” (Gilead Sciences, Inc., priority 2008, dated 2013).

Each structure is given as a SMILES string.

T1 sequence (Q14524 whole entry): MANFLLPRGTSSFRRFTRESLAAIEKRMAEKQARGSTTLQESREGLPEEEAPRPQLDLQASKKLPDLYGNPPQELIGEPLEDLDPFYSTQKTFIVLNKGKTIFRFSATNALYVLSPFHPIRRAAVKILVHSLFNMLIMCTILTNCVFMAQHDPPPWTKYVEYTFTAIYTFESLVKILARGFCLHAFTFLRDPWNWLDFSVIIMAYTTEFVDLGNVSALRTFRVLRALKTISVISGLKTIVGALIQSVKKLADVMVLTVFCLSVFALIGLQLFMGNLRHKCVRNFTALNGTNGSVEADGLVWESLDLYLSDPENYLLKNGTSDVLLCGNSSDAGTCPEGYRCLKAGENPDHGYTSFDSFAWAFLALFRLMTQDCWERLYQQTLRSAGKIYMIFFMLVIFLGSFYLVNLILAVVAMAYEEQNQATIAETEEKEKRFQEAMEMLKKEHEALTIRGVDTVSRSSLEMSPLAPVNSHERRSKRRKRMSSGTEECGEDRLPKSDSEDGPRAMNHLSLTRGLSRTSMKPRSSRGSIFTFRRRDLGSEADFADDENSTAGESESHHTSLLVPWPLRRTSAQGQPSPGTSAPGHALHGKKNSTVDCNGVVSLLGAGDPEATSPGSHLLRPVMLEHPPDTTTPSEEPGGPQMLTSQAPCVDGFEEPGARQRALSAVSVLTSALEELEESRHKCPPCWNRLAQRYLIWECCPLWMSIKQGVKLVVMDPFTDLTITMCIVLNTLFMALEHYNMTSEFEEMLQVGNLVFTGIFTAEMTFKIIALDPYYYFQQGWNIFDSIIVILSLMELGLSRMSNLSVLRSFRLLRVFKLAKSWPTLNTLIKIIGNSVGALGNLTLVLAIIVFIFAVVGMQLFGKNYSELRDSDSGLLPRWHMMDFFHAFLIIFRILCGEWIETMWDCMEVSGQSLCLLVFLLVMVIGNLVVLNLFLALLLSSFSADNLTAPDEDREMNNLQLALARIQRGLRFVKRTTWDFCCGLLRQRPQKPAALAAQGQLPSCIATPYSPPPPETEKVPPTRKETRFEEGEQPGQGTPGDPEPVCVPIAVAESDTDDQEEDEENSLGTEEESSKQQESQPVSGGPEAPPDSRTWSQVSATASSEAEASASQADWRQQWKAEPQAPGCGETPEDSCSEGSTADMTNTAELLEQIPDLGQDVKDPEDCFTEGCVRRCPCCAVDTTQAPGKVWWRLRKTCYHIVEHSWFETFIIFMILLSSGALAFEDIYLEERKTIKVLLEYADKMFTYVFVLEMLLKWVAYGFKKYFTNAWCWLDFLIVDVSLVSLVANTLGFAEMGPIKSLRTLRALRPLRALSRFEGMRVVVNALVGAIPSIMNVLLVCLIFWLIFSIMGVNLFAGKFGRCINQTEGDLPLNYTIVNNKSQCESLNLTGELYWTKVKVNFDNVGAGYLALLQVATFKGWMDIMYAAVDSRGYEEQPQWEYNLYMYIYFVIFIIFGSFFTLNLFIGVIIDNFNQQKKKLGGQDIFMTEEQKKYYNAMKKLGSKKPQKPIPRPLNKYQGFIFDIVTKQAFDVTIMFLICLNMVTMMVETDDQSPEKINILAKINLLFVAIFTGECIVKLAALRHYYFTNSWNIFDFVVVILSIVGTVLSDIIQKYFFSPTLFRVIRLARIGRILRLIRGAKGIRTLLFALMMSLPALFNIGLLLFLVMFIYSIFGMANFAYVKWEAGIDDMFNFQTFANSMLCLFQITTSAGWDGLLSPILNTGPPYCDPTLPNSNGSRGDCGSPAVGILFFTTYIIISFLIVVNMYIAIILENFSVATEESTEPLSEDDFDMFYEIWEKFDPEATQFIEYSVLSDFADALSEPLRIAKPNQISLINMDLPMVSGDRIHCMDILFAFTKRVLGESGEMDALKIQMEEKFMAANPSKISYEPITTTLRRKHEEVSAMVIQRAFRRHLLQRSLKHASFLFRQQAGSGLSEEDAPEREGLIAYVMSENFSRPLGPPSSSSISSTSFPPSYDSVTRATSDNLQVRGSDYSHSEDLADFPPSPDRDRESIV

One assay concerns the target T1, wild-type human cardiac sodium channel, hNav1.5 (late sodium current) (Homo sapiens, UniProt Q14524).
T1 construct: host or cells: HEK293
Nature of the assay: Late INa screening assay (PatchXpress whole cell patch clamp). The class given is cell-based. Particulars: 1 μM test compound; HEK293 hNav1.5; late INa generated with 10 μM Tefluthrin (some experiments 50 nM ATX II); read-out: Late INa % blk (1 μM test cmpd). Here is the method: The late sodium current (Late INa) and peak sodium current (Peak INa) assays are performed on an automated electrophysiology platform, PatchXpress 7000A (MDS Analytical Technologies, Sunnyvale, Calif.), which uses the whole cell patch clamp technique to measure currents through the cell membrane of up to 16 cells at a time. The assay uses an HEK293 (human embryonic kidney) cell line heterologously expressing the wild-type human cardiac sodium channel, hNav1.5, purchased from Millipore (Billerica, Mass.). No beta subunits were coexpressed with the Na channel alpha subunit. Cells are maintained with standard tissue culture procedures and stable channel expression is maintained with 400 μg/ml Geneticin in the culture medium. […] Experiments are carried out at 24-27° C.
For both the Late INa and Peak INa assays, series resistance compensation is set to 50% and whole-cell compensation is performed automatically. […] Currents through open sodium channels are automatically recorded and stored in the DataXpress2 database (MDS Analytical Technologies, Sunnyvale, Calif.). Analysis is performed using DataXpress2 analysis software and data are compiled in Excel.
Compound stocks are routinely made in glass vials to 10 mM in dimethyl sulfoxide (DMSO). In some cases, when compounds are not soluble in DMSO, they are made in 100% ethanol. Stocks are sonicated as necessary. The extracellular solution for screening Late INa is composed of: 140 mM NaCl, 4 mM KCl, 1.8 mM CaCl2, 0.75 mM MgCl2, and 5 mM HEPES with pH adjusted to 7.4 using NaOH. The extracellular solution for screening Peak INa is composed of: 20 mM NaCl, 120 mM N-methyl-D glucamine, 4 mM KCl, 1.8 mM CaCl2, 0.75 mM MgCl2, and 5 mM HEPES with pH adjusted to 7.4 using HCl. The intracellular solution used to perfuse the inside of the cells for both the Late INa and Peak INa assays contains: 120 mM CsF, 20 mM CsCl, 5 mM EGTA, 5 mM HEPES and pH adjusted to 7.4 with CsOH. […] The 0Na extracellular solution used at the end of each experiment for the Late INa and Peak INa assays to measure baseline current contains: 140 mM N-methyl-D-glucamine; 4 mM KCl; 1.8 mM CaCl2; 0.75 mM MgCl2; 5 mM HEPES and pH was adjusted to 7.4 with HCl.
For the Late INa assay, sodium channels are activated every 10 seconds (0.1 Hz) by depolarizing the cell membrane to −20 mV for 250 milliseconds (ms) from a holding potential of −120 mV. In response to a −20 mV voltage step, typical Nav1.5 sodium currents activate rapidly to a peak negative current and then inactivate nearly completely within […].
All compounds are tested to determine their activity in blocking the late sodium current. Late INa current is generated by adding 10 μM Tefluthrin (pyrethroid) to the extracellular solution while recording Na currents For some experiments, 50 nM ATX II (sea anemone toxin), another late Na activator, was used to generate the late component. […] After establishing the whole cell recording configuration, late INa activators are added to each well 4 times over a 16-17 minute period so that the late component of the Na current reaches a stable value. […] Measurements are made at the end of exposure to the third compound addition and values are normalized to the current level when all Na^+ is removed from the extracellular solution after two additions of ONa-ECF. Results are reported as percent block of late INa
In general terms: The patch-clamp technique gives a direct electrical read-out from membranes.
As to `CS(=O)(=O)Nc1ccc(-c2cccc(Cl)c2)c(Cl)c1` [PT-053, N-(2,3′-dichlorobiphenyl-4-yl)methanesulfonamide], the inhibition at 1 µM was 29.9%.

Still in this assay, the particulars now being: 10 μM test compound; HEK293 hNav1.5; late INa generated with 10 μM Tefluthrin (some experiments 50 nM ATX II); read-out: Late INa % blk (10 μM test cmpd).
For the compound `CS(=O)(=O)N(c1ccc(-c2ccc(Oc3ccccc3)cc2)cc1Cl)C1CCC[C@@H]1O` (stereo partly drawn) [PT-066, N-(3-chloro-4′-phenoxybiphenyl-4-yl)-N-[(2S)-2-hydroxycyclopentyl]methanesulfonamide], the inhibition at 10 µM came to 33.8%.
For the compound `COc1cc(NS(C)(=O)=O)ccc1-c1ccc(Cl)cc1` [PT-032, N-(4′-chloro-2-methoxybiphenyl-4-yl)methanesulfonamide], the inhibition at 10 µM stood at 42%.
As to `CS(=O)(=O)N(CC(=O)O)c1ccc(-c2ccc(F)c(Cl)c2)c(Cl)c1` [PT-104, N-(2,3′-dichloro-4′-fluorobiphenyl-4-yl)-N-(methylsulfonyl)glycine], the inhibition at 10 µM was 14.2%.
The same measure, in the same setting: to `CS(=O)(=O)Nc1ccc(-c2ccc(F)cc2Cl)cc1Cl` [PT-098, N-(2′,3-dichloro-4′-fluorobiphenyl-4-yl)methanesulfonamide] belongs 36.4%; to `CC(C)NC(=O)c1cc(NS(C)(=O)=O)ccc1-c1ccc(Oc2ccccc2)cc1` [PT-140, N-isopropyl-4-(methylsulfonamido)-4′-phenoxybiphenyl-2-carboxamide], 47.4%.
The same measure, in the same setting: next, `CS(=O)(=O)Nc1ccc(-c2cc(F)c(F)c(F)c2)c(Cl)c1` [PT-071, N-(2-chloro-3′,4′,5′-trifluorobiphenyl-4-yl)methanesulfonamide]: 59.5%.
For `CS(=O)(=O)Nc1ccc(-c2cccc(OC(F)(F)F)c2)cc1` [PT-008, N-[3′-(trifluoromethoxy)biphenyl-4-yl]methanesulfonamide], the inhibition at 10 µM worked out at 39.4%.
With `CS(=O)(=O)Nc1ccc(-c2cccc(OC(F)(F)F)c2)c(C(F)(F)F)c1` [PT-015, N-[3′-(trifluoromethoxy)-2-(trifluoromethyl)biphenyl-4-yl]methanesulfonamide], the inhibition at 10 µM stood at 60.8%.
Take `Cc1cc(-c2ccc(Oc3ccccc3)cc2)ccc1NS(C)(=O)=O` [PT-042, N-(3-methyl-4′-phenoxybiphenyl-4-yl)methanesulfonamide]: the inhibition at 10 µM amounted to 25.5%.
As to `Cc1cc(-c2ccc(Oc3ccccc3)cc2)c(Cl)cc1N(Cc1ccc(C(=O)O)cc1)S(C)(=O)=O` [PT-113, 4-{[(2-chloro-5-methyl-4′-phenoxybiphenyl-4-yl)(methylsulfonyl)amino]methyl}benzoic acid], the inhibition at 10 µM was found to be 34%.
With `CS(=O)(=O)Nc1ccc(-c2ccc(C(F)(F)F)cc2)c(F)c1` [PT-080, N-[2-fluoro-4′-(trifluoromethyl)biphenyl-4-yl]methanesulfonamide], the inhibition at 10 µM was 66%.
For the compound `CS(=O)(=O)Nc1ccc(-c2ccccc2F)c(Cl)c1` [PT-035, N-(2-chloro-2′-fluorobiphenyl-4-yl)methanesulfonamide], the inhibition at 10 µM came to 48.2%.
Consider `CS(=O)(=O)Nc1ccc(-c2cccc(Cl)c2)c(Cl)c1` [PT-053, N-(2,3′-dichlorobiphenyl-4-yl)methanesulfonamide], for which the inhibition at 10 µM came out at 72.2%.
Same read-out and setting: next, `COc1cc(NS(C)(=O)=O)ccc1-c1cccc(OC(F)(F)F)c1` [PT-010, N-[2-methoxy-3′-(trifluoromethoxy)biphenyl-4-yl]methanesulfonamide]: 48.2%; `CNC(=O)c1cc(N(Cc2ccc(S(C)(=O)=O)cc2)S(C)(=O)=O)ccc1-c1ccc(Oc2ccccc2)cc1` [PT-138, N-methyl-4-(N-(4-(methylsulfonyl)benzyl)methylsulfonamido)-4′-phenoxybiphenyl-2-carboxamide]: 12.6%; `COc1cccc(S(=O)(=O)Nc2cccc(-c3ccc(Cl)cc3)c2)c1` [PT-127, N-(4′-chlorobiphenyl-3-yl)-3-methoxybenzenesulfonamide]: 25%.
Same read-out and setting: next, `CCOC(=O)CN(c1ccc(-c2cccc(OC(F)(F)F)c2)c(Cl)c1)S(C)(=O)=O` [PT-028, ethyl N-[2-chloro-3′-(trifluoromethoxy)biphenyl-4-yl]-N-(methylsulfonyl)glycinate]: 62.1%; `CS(=O)(=O)Nc1ccc(-c2cccc([N+](=O)[O-])c2)c(Cl)c1` [PT-054, N-(2-chloro-3′-nitrobiphenyl-4-yl)methanesulfonamide]: 41.3%; `CS(=O)(=O)Nc1ccc(-c2cccc(C(F)(F)F)c2)c(F)c1` [PT-079, N-[2-fluoro-3′-(trifluoromethyl)biphenyl-4-yl]methanesulfonamide]: 53.2%.
Same read-out and setting: next, `CS(=O)(=O)Nc1ccc(-c2ccc(Cl)c(F)c2)cc1OC(F)(F)F` [PT-074, N-[4′-chloro-3′-fluoro-3-(trifluoromethoxy)biphenyl-4-yl]methanesulfonamide]: 24.2%; `CS(=O)(=O)Nc1ccc(-c2ccc(Oc3ccccc3)cc2)cc1` [PT-033, N-(4′-phenoxybiphenyl-4-yl)methanesulfonamide]: 15.1%.
Turning to `CS(=O)(=O)Nc1ccc(-c2ccccc2OC(F)(F)F)c(C(F)(F)F)c1` [PT-016, N-[2′-(trifluoromethoxy)-2-(trifluoromethyl)biphenyl-4-yl]methanesulfonamide], the inhibition at 10 µM is 45.8%.
As to `CS(=O)(=O)N(Cc1ccc(-c2nnn[nH]2)cc1)c1ccc(-c2ccc(Oc3ccccc3)cc2)c(Cl)c1` [PT-135, N-(4-(1H-tetrazol-5-yl)benzyl)-N-(2-chloro-4′-phenoxybiphenyl-4-yl)methanesulfonamide], the inhibition at 10 µM was determined as 9.7%.
The same measure, in the same setting: to `CC(C)(C)OC(=O)CN(c1ccc(-c2ccc(C(F)(F)F)cc2)c(Cl)c1)S(C)(=O)=O` [PT-128, tert-butyl 2-(N-(2-chloro-4′-(trifluoromethyl)biphenyl-4-yl)methylsulfonamido)acetate] belongs 25.7%; to `CS(=O)(=O)Nc1ccc(-c2ccc(OC(F)(F)F)cc2)cc1` [PT-086, N-[4′-(trifluoromethoxy)biphenyl-4-yl]methanesulfonamide], 9.4%.
With `CS(=O)(=O)Nc1ccc(-c2ccc(Oc3ccccc3)cc2)cc1C(=O)O` [PT-120, 4-[(methylsulfonyl)amino]-4′-phenoxybiphenyl-3-carboxylic acid], the inhibition at 10 µM came to 27%.
`CS(=O)(=O)Nc1ccc(-c2ccc(C(F)(F)F)cc2)cc1C(=O)O` [PT-122, 4-[(methylsulfonyl)amino]-4′-(trifluoromethyl)biphenyl-3-carboxylic acid]: the inhibition at 10 µM came out at 25.4%.
The same measure, in the same setting: to `COc1cc(NS(C)(=O)=O)ccc1-c1ccccc1OC(F)(F)F` [PT-011, N-[2-methoxy-2′-(trifluoromethoxy)biphenyl-4-yl]methanesulfonamide] belongs 47.6%.
Still for that read-out and setting: to `Cc1cc(NS(=O)(=O)C2CC2)ccc1-c1ccc(C#N)cc1` [PT-150, N-(4′-cyano-2-methylbiphenyl-4-yl)cyclopropanesulfonamide] belongs 22.5%; to `CS(=O)(=O)Nc1ccc(-c2ccc(Cl)c(F)c2)c(C(F)(F)F)c1` [PT-012, N-[4′-chloro-3′-fluoro-2-(trifluoromethyl)biphenyl-4-yl]methanesulfonamide], 52%; to `CS(=O)(=O)N(Cc1ccc(CC(=O)O)cc1)c1ccc(-c2ccc(Oc3ccccc3)cc2)c(Cl)c1` [PT-161, 2-(4-((N-(2-chloro-4′-phenoxybiphenyl-4-yl)methylsulfonamido)methyl)phenyl)acetic acid], 30.9%.
Consider `CS(=O)(=O)N(CC(=O)O)c1ccc(-c2ccc(C(F)(F)F)cc2)c(Cl)c1` [PT-111, N-[2-chloro-4′-(trifluoromethyl)biphenyl-4-yl]-N-(methylsulfonyl)glycine], for which the inhibition at 10 µM was found to be 14.6%.
